Literature values as cited in patent US20110105397A1, “METHOD FOR TREATING HEART FAILURE WITH STRESSCOPIN-LIKE PEPTIDES” (priority 2009, published 2011).

Target: m-CRHR2b (Mus musculus, UniProt Q60748)
Conditions: m-CRHR2b transfected CHO-K1 cells (Lewis et al., 2001); cited from earlier work

Sequence of m-CRHR2b (Q60748 1-431 isoform Q60748-2): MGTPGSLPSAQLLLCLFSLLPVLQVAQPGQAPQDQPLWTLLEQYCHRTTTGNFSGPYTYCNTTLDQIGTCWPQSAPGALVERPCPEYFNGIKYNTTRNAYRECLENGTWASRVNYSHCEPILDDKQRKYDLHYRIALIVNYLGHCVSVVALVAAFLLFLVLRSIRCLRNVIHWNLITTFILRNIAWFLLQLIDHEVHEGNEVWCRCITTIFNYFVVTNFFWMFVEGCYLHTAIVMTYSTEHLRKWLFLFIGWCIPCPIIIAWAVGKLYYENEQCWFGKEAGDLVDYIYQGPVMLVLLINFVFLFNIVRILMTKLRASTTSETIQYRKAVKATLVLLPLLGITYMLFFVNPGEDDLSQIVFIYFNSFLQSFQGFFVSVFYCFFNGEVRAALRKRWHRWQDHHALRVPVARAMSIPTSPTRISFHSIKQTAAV

CC[C@H](C)[C@H](NC(=O)[C@H](CO)NC(=O)[C@H](CC(C)C)NC(=O)[C@@H]1CCCN1C(=O)[C@@H]1CCCN1C(=O)[C@H](CC(=O)O)NC(=O)[C@@H](N)CC(=O)O)C(=O)N[C@@H](CC(=O)O)C(=O)N[C@@H](CC(C)C)C(=O)N[C@H](C(=O)N[C@@H](Cc1ccccc1)C(=O)N[C@@H](Cc1c[nH]cn1)C(=O)N[C@@H](CC(C)C)C(=O)N[C@@H](CC(C)C)C(=O)N[C@@H](CCCNC(=N)N)C(=O)N[C@H](C(=O)N[C@@H](CC(C)C)C(=O)N[C@@H](CC(C)C)C(=O)N[C@@H](CCC(=O)O)C(=O)N[C@@H](CC(C)C)C(=O)N[C@@H](C)C(=O)N[C@@H](CCCNC(=N)N)C(=O)N[C@H](C(=O)N[C@@H](CCC(N)=O)C(=O)N[C@@H](CO)C(=O)N[C@@H](CCC(N)=O)C(=O)N[C@@H](CCCNC(=N)N)C(=O)N[C@@H](CCC(=O)O)C(=O)N[C@@H](CCCNC(=N)N)C(=O)N[C@@H](C)C(=O)N[C@@H](CCC(=O)O)C(=O)N[C@@H](CCC(N)=O)C(=O)N[C@@H](CC(N)=O)C(=O)N[C@@H](CCCNC(=N)N)C(=O)N[C@H](C(=O)N[C@H](C(=O)N[C@@H](Cc1ccccc1)C(=O)N[C@@H](CC(=O)O)C(=O)N[C@@H](CO)C(=O)N[C@H](C(N)=O)C(C)C)[C@@H](C)CC)[C@@H](C)CC)[C@@H](C)O)[C@@H](C)O)[C@@H](C)O [SEQ ID NO: 114, DDPPLSIDLTFHLLRTLLELARTQSQRERAEQNRIIFDSV-NH2]
Published pA50: 10.06^2
